Source: patent US20240368096A1 (Enanta Pharmaceuticals, Inc., priority 2022, published 2024)

Each compound was assayed on HBV (assay: HBV infection in HepG2-NTCP cells (HBeAg AlphaLISA in supernatants)). Conditions: Hepatitis B virus, 192 h; HBV infection of HepG2-NTCP cells; HBeAg in supernatants at day 8 post infection; read-out: Cellular EC50.
Type: cell-based
Method in brief: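 HepG2-NTCP A3 cells were pre-incubated 2 h with 3-fold serially diluted compounds, then infected with HBV at 2000 GE/cell with 4% PEG (0.5% DMSO final). After washing on day 1, cells stayed in 2.5% DMSO medium; supernatant HBeAg measured by AlphaLISA on day 8, EC50 versus DMSO controls.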
With `CN1[C@H](CN2CCC(F)(F)C2)CN(c2ccccc2)c2cc(Cl)c(-c3ccc(F)c(C(=O)O)c3)cc2S1(=O)=O` [Example 111] the EC50 was greater than 1000 nM. With `Cc1ccc(F)cc1Oc1cc2c(cc1-c1ccc(F)c(C(=O)O)c1)S(=O)(=O)N(C)[C@H](C1CCCCC1)CN2c1ccccc1` [Example 413] the EC50 was 100 to 1000 nM. For `CN1[C@H](C2CC2)CN(c2ccccc2)c2cc(Cl)c(-c3ccc(F)c(C(=O)O)c3)cc2S1(=O)=O` [Example 64, (R)-5-(7-chloro-3-cyclopropyl-2-methyl-1,1-dioxido-5-phenyl-2,3,4,5-tetrahydrobenzo[f][1,2,5]thiadiazepin-8-yl)-2-fluorobenzoic acid], the EC50 was 100 to 1000 nM. For `COc1cc(-c2cc3c(cc2Cl)N(c2ccccc2)C[C@@H](C2CCCCC2)N(C)S3(=O)=O)cc(C(=O)O)c1NC(=O)OCC(C)C` [Example 278], the EC50 was less than 100 nM. For `CC(C)CCOc1cc2c(cc1-c1ccc(F)c(C(=O)O)c1)S(=O)(=O)N(C)[C@H](C1CCCCC1)CN2c1ccccc1` [Example 359], the EC50 was less than 100 nM. For `CN1[C@H](C2CCCCC2)CN(c2ccccc2)c2cc(OCC3CCN(C(=O)OC(C)(C)C)CC3)c(-c3ccc(F)c(C(=O)O)c3)cc2S1(=O)=O` [Example 366], the EC50 was less than 100 nM. For `CC(Oc1cc2c(cc1-c1ccc(F)c(C(=O)O)c1)S(=O)(=O)N(C)[C@H](C1CCCCC1)CN2c1ccccc1)c1ccsc1` (some centres unmarked) [Example 337], the EC50 was less than 100 nM. For `CN1[C@H](C2CCCCC2)CN(c2ccccc2)c2cc(OCc3cscc3Cl)c(-c3cc(F)c(C(=O)O)s3)cc2S1(=O)=O` [Example 494], the EC50 was less than 100 nM. `CN1[C@@H](CC2CCCCC2)CN(c2ccccc2)c2cc(Cl)c(-c3cccc(C(=O)O)c3)cc2S1(=O)=O` [Example 43] was tested, and the EC50 was greater than 1000 nM. `CN1[C@H](C2CCCCC2)CN(c2ccccc2)c2cc(OCC34CC(CO3)C4)c(-c3ccc(F)c(C(=O)O)c3)cc2S1(=O)=O` [Example 371] was tested, and the EC50 was less than 100 nM. `CN1[C@H](C2CCCCC2)CN(c2ccccc2)c2cc(Cl)c(-c3cc(NC(=O)OCC4CC(F)(F)C4)c(C(=O)O)s3)cc2S1(=O)=O` [Example 253] gave an EC50 of less than 100 nM. `Cc1cc(COc2cc3c(cc2-c2cc(F)c(C(=O)O)s2)S(=O)(=O)N(C)[C@H](C2CCCCC2)CN3c2ccccc2)c(C)s1` [Example 492] gave an EC50 of less than 100 nM. `CC(C)C[C@@H]1CN(c2ccccc2)c2cc(Cl)c(-c3cccc(C(N)=O)c3)cc2S(=O)(=O)N1C` [Example 167] showed an EC50 greater than 1000 nM. Work on `CSc1cc2c(cc1-c1cc(C)c(C(=O)O)s1)S(=O)(=O)N(C)[C@H](C1CCCCC1)CN2c1ccccc1` [Example 562, (R)-5-(3-cyclohexyl-2-methyl-7-(methylthio)-1,1-dioxido-5-phenyl-2,3,4,5-tetrahydrobenzo[f][1,2,5]thiadiazepin-8-yl)-3-methylthiophene-2-carboxylic acid] yielded an EC50 of less than 100 nM. `COC[C@@H]1CN(c2ccccc2)c2cc(Cl)c(-c3ccc(F)c(C(=O)O)c3)cc2S(=O)(=O)N1C` [Example 95] was tested, and the EC50 was 100 to 1000 nM. In the case of `CC(C)C[C@@H]1CN(c2ccccc2)c2cc(Cl)c(-c3ccc(C4=CCC(C)(C)CC4)c(C(=O)O)c3)cc2S(=O)(=O)N1C` [Example 217], the EC50 is reported as greater than 1000 nM. `CN1[C@H](COC(C)(C)C)CN(c2ccccc2)c2cc(Cl)c(-c3ccc(F)c(C(=O)O)c3)cc2S1(=O)=O` [Example 101, (S)-5-(3-(tert-butoxymethyl)-7-chloro-2-methyl-1,1-dioxido-5-phenyl-2,3,4,5-tetrahydrobenzo[f][1,2,5]thiadiazepin-8-yl)-2-fluorobenzoic acid] was tested, and the EC50 was 100 to 1000 nM. Compound `COc1ccccc1Oc1cc2c(cc1-c1ccc(F)c(C(=O)O)c1)S(=O)(=O)N(C)[C@H](CC(C)C)CN2c1ccccc1` [Example 428] has an EC50 of less than 100 nM. With `CN1[C@H](C2CCCCC2)CN(c2ccccc2)c2cc(Cl)c(-c3cc(C(=O)O)c4ccccc4c3)cc2S1(=O)=O` [Example 196] the EC50 was 100 to 1000 nM. `CN1C[C@@H](C2CCCCC2)N(C)S(=O)(=O)c2cc(-c3ccc(F)c(C(=O)O)c3)c(Cl)cc21` [Example 582, (R)-5-(7-chloro-3-cyclohexyl-2,5-dimethyl-1,1-dioxido-2,3,4,5-tetrahydrobenzo[f][1,2,5]thiadiazepin-8-yl)-2-fluorobenzoic acid] was tested, and the EC50 was 100 to 1000 nM. Work on `O=C(O)c1cccc(-c2cc3c(cc2Cl)N(c2ccccc2)CC2CC4(CC4)CN2S3(=O)=O)c1` (centres unmarked) [Example 57] yielded an EC50 of 100 to 1000 nM. `CC(C)C[C@@H]1CN(c2ccccc2)c2cc(Cl)c(-c3ccc(C(F)F)c(C(=O)O)c3)cc2S(=O)(=O)N1C` [Example 165] gave an EC50 of 100 to 1000 nM. Work on `COCCOc1cc2c(cc1-c1cc(NC(=O)OC(C)(C)C)c(C(=O)O)s1)S(=O)(=O)N(C)[C@H](C1CCCCC1)CN2c1ccccc1` [Example 515, (R)-3-((tert-butoxycarbonyl)amino)-5-(3-cyclohexyl-7-(2-methoxyethoxy)-2-methyl-1,1-dioxido-5-phenyl-2,3,4,5-tetrahydrobenzo[f][1,2,5]thiadiazepin-8-yl)thiophene-2-carboxylic acid] yielded an EC50 of less than 100 nM. In the case of `CCOC(=O)Nc1cc(-c2cc3c(cc2OCCOC)N(c2ccccc2)C[C@@H](C2CCCCC2)N(C)S3(=O)=O)sc1C(=O)O` [Example 517], the EC50 is reported as less than 100 nM. In the case of `CC(C)C[C@@H]1CN(c2ccccc2)c2cc(Cl)c(-c3ccc(F)c(C(=O)O)c3)cc2S(=O)(=O)N1C` [Example 59, (R)-5-(7-chloro-3-isobutyl-2-methyl-1,1-dioxido-5-phenyl-2,3,4,5-tetrahydrobenzo[f][1,2,5]thiadiazepin-8-yl)-2-fluorobenzoic acid], the EC50 is reported as less than 100 nM. `CC(C)CCCCCOc1cc2c(cc1-c1ccc(F)c(C(=O)O)c1)S(=O)(=O)N(C)[C@H](C1CCCCC1)CN2c1ccccc1` [Example 362] showed an EC50 of less than 100 nM. Compound `CN1[C@H](C2CCCCC2)CN(c2ccccc2)c2cc(Cl)c(-c3cc(NC(=O)OC4CC4)c(C(=O)O)s3)cc2S1(=O)=O` [Example 249] has an EC50 of less than 100 nM. Compound `CN1[C@H](C2CCCCC2)CN(c2ccc(C(F)F)cc2)c2cc(Cl)c(-c3ccc(F)c(C(=O)O)c3)cc2S1(=O)=O` [Example 303] has an EC50 of 100 to 1000 nM. For `CN1C(c2cnn(C)c2)CN(c2ccccc2)c2cc(Cl)c(-c3ccc(F)c(C(=O)O)c3)cc2S1(=O)=O` (centres unmarked) [Example 79], the EC50 was 100 to 1000 nM. For `CC(C)CC1CN(c2ccccc2)c2cc(Cl)c(-c3cncc(C(=O)O)c3)cc2S(=O)(=O)N1C` (centres unmarked) [Example 35], the EC50 was 100 to 1000 nM. With `CC(C)C[C@@H]1CN(c2ccccc2)c2cc(OCCc3cscn3)c(-c3ccc(F)c(C(=O)O)c3)cc2S(=O)(=O)N1C` [Example 460] the EC50 was less than 100 nM. Compound `CN1[C@H](COc2ccccc2)CN(c2ccccc2)c2cc(Cl)c(-c3ccc(F)c(C(=O)O)c3)cc2S1(=O)=O` [Example 100, (S)-5-(7-chloro-2-methyl-1,1-dioxido-3-(phenoxymethyl)-5-phenyl-2,3,4,5-tetrahydrobenzo[f][1,2,5]thiadiazepin-8-yl)-2-fluorobenzoic acid] has an EC50 greater than 1000 nM. `CC(C)COc1cc2c(cc1-c1ccc(F)c(C(=O)O)c1)S(=O)(=O)N(C)[C@H](C1CCCCC1)CN2c1ccccc1` [Example 358] was tested, and the EC50 was less than 100 nM. Compound `CC(C)C[C@@H]1CN(c2ccccc2)c2cc(Cl)c(-c3cccc(S(C)(=N)=O)c3)cc2S(=O)(=O)N1C` (some centres unmarked) [Example 184] has an EC50 greater than 1000 nM. `CN1[C@H](C2CCCCC2)CNc2cc(-c3ccncc3)c(-c3ccc(F)c(C(=O)O)c3)cc2S1(=O)=O` [Example 570] was tested, and the EC50 was greater than 1000 nM. For `CN1[C@H](C2CCCCC2)CN(c2ccccc2)c2cc(OCCc3cn(C)cn3)c(-c3ccc(F)c(C(=O)O)c3)cc2S1(=O)=O` [Example 392], the EC50 was greater than 1000 nM. With `CN1[C@H](CN2CCCC2)CN(c2ccccc2)c2cc(Cl)c(-c3ccc(F)c(C(=O)O)c3)cc2S1(=O)=O` [Example 110] the EC50 was greater than 1000 nM. With `CN1[C@H](C2CCCCC2)CN(c2cc(F)cc(F)c2)c2cc(Cl)c(-c3ccc(F)c(C(=O)O)c3)cc2S1(=O)=O` [Example 297] the EC50 was less than 100 nM. For `CN1[C@H](C2CCCCC2)CN(c2ccccc2)c2cc(Cl)c(-c3cc(C(=O)O)ccc3F)cc2S1(=O)=O` [Example 150, (R)-3-(7-chloro-3-cyclohexyl-2-methyl-1,1-dioxido-5-phenyl-2,3,4,5-tetrahydrobenzo[f][1,2,5]thiadiazepin-8-yl)-4-fluorobenzoic acid], the EC50 was less than 100 nM. `CN1[C@H](C2CCCCC2)CN(c2ccccc2)c2cc(Cl)c(-c3cc4c(c(C(=O)O)c3)OCO4)cc2S1(=O)=O` [Example 153, (R)-6-(7-chloro-3-cyclohexyl-2-methyl-1,1-dioxido-5-phenyl-2,3,4,5-tetrahydrobenzo[f][1,2,5]thiadiazepin-8-yl)benzo[d][1,3]dioxole-4-carboxylic acid] was tested, and the EC50 was less than 100 nM. Work on `CN1[C@H](C2CCCCC2)CN(c2ccccc2)c2cc(OCc3cccc(OC(F)(F)F)c3)c(-c3cc(F)c(C(=O)O)s3)cc2S1(=O)=O` [Example 511] yielded an EC50 of 100 to 1000 nM. Compound `CN1[C@H](C2CCCCC2)CN(c2ccccc2)c2cc(C3COC3)c(-c3ccc(F)c(C(=O)O)c3)cc2S1(=O)=O` [Example 588] has an EC50 of 100 to 1000 nM. Work on `CN1[C@H](C2CCCCC2)CN(CC2CC2)c2cc(Cl)c(-c3ccc(F)c(C(=O)O)c3)cc2S1(=O)=O` [Example 319, (R)-5-(7-chloro-3-cyclohexyl-5-(cyclopropylmethyl)-2-methyl-1,1-dioxido-2,3,4,5-tetrahydrobenzo[f][1,2,5]thiadiazepin-8-yl)-2-fluorobenzoic acid] yielded an EC50 of 100 to 1000 nM. Compound `CC(C)C[C@@H]1CN(c2ccccc2)c2cc(OCc3cocn3)c(-c3ccc(F)c(C(=O)O)c3)cc2S(=O)(=O)N1C` [Example 462] has an EC50 of less than 100 nM. With `CN1[C@H](C2CCCCC2)CN(c2ccccc2)c2cc(Cl)c(-c3ccc(O)c(C(=O)O)c3)cc2S1(=O)=O` [Example 156, (R)-5-(7-chloro-3-cyclohexyl-2-methyl-1,1-dioxido-5-phenyl-2,3,4,5-tetrahydrobenzo[f][1,2,5]thiadiazepin-8-yl)-2-hydroxybenzoic acid] the EC50 was less than 100 nM. `CC(C)C[C@@H]1CN(c2ccccc2)c2cc(N(C)c3ccccc3F)c(-c3ccc(Cl)c(C(=O)O)c3)cc2S(=O)(=O)N1C` [Example 556] was tested, and the EC50 was 100 to 1000 nM. For `CSc1cc2c(cc1-c1cccc(C(=O)O)c1)S(=O)(=O)N1CC(C)(C)CC1CN2c1ccccc1` (centres unmarked) [Example 19], the EC50 was 100 to 1000 nM.
